# Patent EP0251446B1, “Non-human Carbonyl hydrolase mutants, DNA sequences and vectors encoding same and hosts transformed with said vectors” (GENENCOR INTERNATIONAL, INC., priority 1986, dated 1988)
# Changes are numbered by the printed parent chain. *1 amine or outer side, *2 acyl side, *3 side chain or, on linkers, in order; H or OH if unused. Where a SMILES comes first, the peptide text is derived from it. The star is where a group is joined. pNA = O=[N+]([O-])c1ccc(N*)cc1; Suc = O=C(CCC(=O)[*:2])[*:1]
# What was measured:
# Assay type in all cases: biochemical
# [1] = target: T1, B. amyloliquefaciens subtilisin, wild type (WT, Gly166) (Bacillus amyloliquefaciens, UniProt P00782); assay: Kinetics of hydrolysis of succinyl-Ala-Ala-Pro-X-p-nitroanilide substrates (progress curve analysis)
# T1 construct: at various amino acid residues within the mature form of the subtilisin molecule; made in house; host or cells: Bacillus subtilis (secreted, culture supernatant)
# T1 sequence (P00782 108-382): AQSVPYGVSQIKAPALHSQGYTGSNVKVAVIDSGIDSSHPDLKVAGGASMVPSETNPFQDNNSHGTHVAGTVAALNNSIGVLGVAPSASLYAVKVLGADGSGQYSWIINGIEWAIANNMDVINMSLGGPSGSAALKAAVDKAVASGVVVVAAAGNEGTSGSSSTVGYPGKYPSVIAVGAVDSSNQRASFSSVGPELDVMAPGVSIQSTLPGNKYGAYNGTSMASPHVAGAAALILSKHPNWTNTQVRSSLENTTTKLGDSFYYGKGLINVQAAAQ
# Source text: A change in substrate specificity is defined as a difference between the kcat/Km ratio of the precursor carbonyl hydrolase and that of the hydrolase mutant. The kcat/Km ratio is a measure of catalytic efficienty. Carbonyl hydrolase mutants with increased or diminished kcat/Km ratios are described in the examples. Generally, the objective will be to secure a mutant having a greater (numerically large) kcat/Km ratio for a given substrate, thereby enabling the use of the enzyme to more efficiently act on a target substrate. A substantial change in kcat/Km ratio is preferably at least 2-fold increase or decrease. However, smaller increases or decreases in the ratio (e.g., at least 1.5-fold) are also considered substantial. An increase in kcat/Km ratio for one substrate may be accompanied by a reduction in kcat/Km ratio for another substrate. […] Km and kcat are measured in accord with known procedures, as described in EPO Publication No. 0130756 or as described herein.
# (§1) Wild-type subtilisin was purified from B. subtilis culture supernatants expressing the B. amyloliquefaciens subtilisin gene (Wells, J.A., et al. (1983) Nucleic Acids Res. 11, 7911-7925) as previously described (Estell, D.A., et al. (1985) J. Biol. Chem. 260, 6518-6521). Details of the synthesis of tetrapeptide substrates having the form succinyl-L-AlaL-AlaL-ProL-[X]-p-nitroanilide (where X is the P1 amino acid) are described by DelMar, E.G., et al. (1979) Anal. Biochem. 99, 316-320. Kinetic parameters, Km(M) and kcat-(s-^1) were measured using a modified progress curve analysis (Estell, D.A., et al. (1985) J. Biol. Chem. 260, 6518-6521). Briefly, plots of rate versus product concentration were fit to the differential form of the rate equation using a non-linear regression algorithm. Errors in kcat and Km for all values reported are less than five percent. The various substrates in Table VIII are ranged in order of decreasing hydrophobicity. Nozaki, Y. (1971), J. Biol. Chem. 246, 2211-2217; Tanford C. (1978) Science 200, 1012).
# [2] = target: T2, B. amyloliquefaciens subtilisin deletion mutant S153/S156/A158/G159/S160/Δ161-164/I165/S166/A169/R170 (Bacillus amyloliquefaciens, UniProt P00782, A260S/DEL268-271/E263S/G267S/G273S/G276A/K277R/S266G/T265A/V272I); assay: Kinetics of p-nitroanilide substrate hydrolysis, deletion mutant; conditions: Table V; substrate not given; method b166 gives kcat in s-1
# T2 construct: made in house
# T2 sequence (P00782 with tags, fused parts or gaps A260S/E263S/DEL265-265/S266A/S269I/DEL271-273/G276A/K277R): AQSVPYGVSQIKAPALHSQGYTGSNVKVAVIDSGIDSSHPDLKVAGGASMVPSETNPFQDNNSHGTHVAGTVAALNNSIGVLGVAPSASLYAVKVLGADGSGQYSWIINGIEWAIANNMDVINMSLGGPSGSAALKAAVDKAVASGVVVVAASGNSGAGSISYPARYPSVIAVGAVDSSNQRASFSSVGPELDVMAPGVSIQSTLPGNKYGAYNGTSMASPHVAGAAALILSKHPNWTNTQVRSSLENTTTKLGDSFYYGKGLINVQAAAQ
# Source text: The effect of deletion of residues 161 through 164 has been shown by comparing the activity of the wild type (WT) enzyme with a mutant enzyme containing this deletion as well as multiple substitutions (i.e., S153/S156/A158/G159/S160/0161-164/1165/S166/A169/R170). This produced the following results:
# as §1
# [3] = target: T3, B. amyloliquefaciens subtilisin variant L217 (Tyr217 to Leu) (Bacillus amyloliquefaciens, UniProt P00782, Y324L); assay: Kinetics of p-nitroanilide substrate hydrolysis, L217; conditions: substrate sAAPFpNa
# T3 construct: made in house
# T3 sequence (P00782 108-382 Y324L): T1 sequence (P00782 108-382) with Y217L
# Source text: as §1
# Tyr217 has been substituted by all other 19 amino acids. Cassette mutagenesis as described in EPO publication No. 0130756 was used according to the protocol of Figure 22. The EcoRV restriction site was used for restriction-purification of pA217.
# Since this position is involved in substrate binding, mutations here effect kinetic parameters of the enzyme. […]
smiles,measurement,setting,value
"C[C@H](NC(=O)CCC(=O)O)C(=O)N[C@@H](C)C(=O)N1CCC[C@H]1C(=O)N[C@@H](Cc1ccccc1)C(=O)Nc1ccc([N+](=O)[O-])cc1 [sAAPFpNa, succinyl-L-AlaL-AlaL-ProL-Phep-nitroanilide, reference compound] (Suc-AAPF-pNA)",kcat,"[1]; Table V, substrate not given, method b166 gives kcat in s-1",50
same,kcat,"[1]; Table XIX, WT",50 s-^1
same,kcat,[2],8
same,kcat,[3],277 5'
